These compounds were tested against PD-1/PD-L1 (Homo sapiens (Human), UniProt Q9NZQ7) (assay: PD-1/PD-L1 Homogenous Time-Resolved Fluorescence (HTRF) binding assay). Settings: PD-1-Ig / PD-L1-His HTRF; value given as number; read-out: Range or IC50.
Sequence of PD-1/PD-L1 (Q9NZQ7 other isoform, or with tags, fused parts or gaps): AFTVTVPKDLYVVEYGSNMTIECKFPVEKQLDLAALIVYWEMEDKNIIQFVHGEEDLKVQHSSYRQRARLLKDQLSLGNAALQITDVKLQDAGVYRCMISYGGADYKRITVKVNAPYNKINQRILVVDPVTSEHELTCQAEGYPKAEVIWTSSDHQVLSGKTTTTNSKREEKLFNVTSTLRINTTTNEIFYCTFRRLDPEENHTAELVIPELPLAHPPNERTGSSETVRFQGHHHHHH
Description: The ability of the compounds of formula (I) to bind to PD-L1 was investigated using a PD-1/PD-L1 Homogenous Time-Resolved Fluorescence (HTRF) binding assay.
Homogenous Time-Resolved Fluorescence (HTRF) binding assay.
The interaction of PD-1 and PD-L1 can be assessed using soluble, purified preparations of the extracellular domains of the two proteins. The PD-1 and PD-L1 protein extracellular domains were expressed as fusion proteins with detection tags, for PD-1, the tag was the Fc portion of Immunoglobulin (PD-1-Ig) and for PD-L1 it was the 6 histidine motif (PD-L1-His). All binding studies were performed in an HTRF assay buffer consisting of dPBS supplemented with 0.1% […] bovine serum albumin and 0.05% (v/v) Tween-20. For the h/PD-L1-His binding assay, inhibitors were pre-incubated with PD-L1-His (10 nM final) for 15 m in 4 μl of assay buffer, followed by addition of PD-1-Ig (20 nM final) in 1 μl of assay buffer and further incubation for 15 m. HTRF detection was achieved using europium crypate-labeled anti-Ig (1 nM final) and allophycocyanin (APC) labeled anti-His (20 nM final). Antibodies were diluted in HTRF detection buffer and 5 μl was dispensed on top of the binding reaction. The reaction mixture was allowed to equilibrate for 30 minutes and the resulting signal (665 nm/620 nm ratio) was obtained using an EnVision fluorometer. Additional binding assays were established between the human proteins PD-1-Ig/PD-L2-His (20 & 5 nM, respectively) and CD8O-His/PD-L1-Ig (100 & 10 nM, respectively).
Recombinant Proteins: Human PD-1 (25-167) with a C-terminal human Fc domain of immunoglobulin G (Ig) epitope tag [hPD-1 (25-167)-3S-IG] and human PD-L1 (18-239) with a C-terminal His epitope tag [hPD-L1(18-239)-TVMV-His] were expressed in HEK293T cells and purified sequentially by ProteinA affinity chromatography and size exclusion chromatography. Human PD-L2-His and CD80-His was obtained through commercial sources.
The table below lists the IC50 values for representative examples of this disclosure measured in the PD-1/PD-L1 Homogenous Time-Resolved Fluorescence (HTRF) binding assay. Ranges are as follows: A=0.18 nM-0.99 nM; B=1.0 nM-5.0 nM; C=5.01 nM-10.1 nM; D=10.2 nM-200 nM; E=201 nM→10 uM
`Cc1c(COc2cc(OCc3cncc(C#N)c3)c(CN3CCCC[C@H]3C(=O)O)cc2Cl)cccc1-c1ccc2ncc(C3=CCCNC3)nc2c1` [Example 1027, (S)-1-(5-Chloro-2-((5-cyanopyridin-3-yl)methoxy)-4-((2-methyl-3-(3-(1,2,5,6-tetra-hydropyridin-3-yl)quinoxalin-6-yl)benzyl)oxy)benzyl)piperidine-2-carboxylic Acid] showed an IC50 of 1.7 nM.

Same assay, conditions: PD-1-Ig / PD-L1-His HTRF; value given as range class; read-out: Range or IC50
In the case of `Cc1c(COc2cc(OCc3cncc(C#N)c3)c(CN3CCCC[C@H]3C(=O)O)cc2Cl)cccc1-c1ccc2oc(C3CC4CCC(C3)N4)nc2c1` (stereo partly drawn) [Example 1006, (2S)-1-(4-((3-(2-(8-azabicyclo[3.2.1]octan-3-yl)benzo[d]oxazol-5-yl)-2-methylbenzyl)oxy)-5-chloro-2-((5-cyanopyridin-3-yl)methoxy)benzyl)piperidine-2-carboxylic Acid], the IC50 is reported as 1 to 5 nM.
With `Cc1c(COc2cc(OCc3cncc(C#N)c3)c(CN3CCCC[C@H]3C(=O)O)cc2Cl)cccc1-c1ccc2oc(C3CCOCC3)nc2c1` [Example 1017, (S)-1-(5-chloro-2-((5-cyanopyridin-3-yl)methoxy)-4-((2-methyl-3-(2-(tetrahydro-2H-pyran-4-yl)benzo[d]oxazol-5-yl)benzyl)oxy)benzyl)piperidine-2-carboxylic Acid] the IC50 was 0.18 to 0.99 nM.
`Cc1c(COc2cc(OCc3cncc(C#N)c3)c(CN3CCCC[C@H]3C(=O)O)cc2Cl)cccc1-c1ccc2oc(C3CCN(c4ccccc4)CC3)nc2c1` [Example 1022, (S)-1-(5-chloro-2-((5-cyanopyridin-3-yl)methoxy)-4-((2-methyl-3-(2-(1-phenylpiperidin-4-yl)benzo[d]oxazol-5-yl)benzyl)oxy)benzyl)piperidine-2-carboxylic Acid] was tested, and the IC50 was 10.2 to 200 nM.
Compound `Cc1c(COc2cc(OCc3cncc(C#N)c3)c(CN3CCCC[C@H]3C(=O)O)cc2Cl)cccc1-c1ccc2oc(C3CCC(C(=O)O)CC3)nc2c1` (single isomer, unassigned) [Example 1026] has an IC50 of 201 to 10000 nM.
`Cc1c(COc2cc(OCc3cncc(C#N)c3)c(CN[C@H](C(=O)O)C(C)C)cc2Cl)cccc1-c1ccc2oc(N3CCN(C)CC3)nc2c1` [Example 2013, (S)-2-((5-chloro-2-((5-cyanopyridin-3-yl)methoxy)-4-((2-methyl-3-(2-(4-methylpiperazin-1-yl)benzo[d]oxazol-5-yl)benzyl)oxy)benzyl)amino)-3-methylbutanoic Acid] showed an IC50 of 1 to 5 nM.
With `Cc1c(COc2cc(OCc3cncc(C#N)c3)c(CN3CCCC[C@H]3C(=O)O)cc2Cl)cccc1-c1ccc2oc(C3CCN(C)CC3)nc2c1` [Example 1001, (S)-1-(5-chloro-2-((5-cyanopyridin-3-yl)methoxy)-4-((2-methyl-3-(2-(1-methylpiperidin-4-yl)benzo[d]oxazol-5-yl)benzyl)oxy)benzyl)piperidine-2-carboxylic Acid] the IC50 was 0.18 to 0.99 nM.
`Cc1c(COc2cc(OCc3cncc(C#N)c3)c(CN3CCCC[C@H]3C(=O)O)cc2Cl)cccc1-c1ccc2ncc(N3CCN(C)CC3)nc2c1` [Example 1031, (S)-1-(5-chloro-2-((5-cyanopyridin-3-yl)methoxy)-4-((2-methyl-3-(3-(4-methylpiperazin-1-yl)quinoxalin-6-yl)benzyl)oxy)benzyl)piperidine-2-carboxylic Acid] was tested, and the IC50 was 5.01 to 10.1 nM.
Work on `Cc1c(COc2cc(OCc3cncc(C#N)c3)c(CN3CCCC[C@H]3C(=O)O)cc2Cl)cccc1-c1ccc2oc(C34CC(N)(C3)C4)nc2c1` [Example 1015, (S)-1-(4-((3-(2-(3-aminobicyclo[1.1.1]pentan-1-yl)benzo[d]oxazol-5-yl)-2-methylbenzyl)oxy)-5-chloro-2-((5-cyanopyridin-3-yl)methoxy)benzyl)piperidine-2-carboxylic Acid] yielded an IC50 of 5.01 to 10.1 nM.
Work on `Cc1c(COc2cc(OCc3cncc(C#N)c3)c(CN3CCCC[C@H]3C(=O)O)cc2Cl)cccc1-c1ccc2oc(C3CC4CCC(C3)O4)nc2c1` (stereo partly drawn) [Example 1018, (2S)-1-(4-((3-(2-(8-oxabicyclo[3.2.1]octan-3-yl)benzo[d]oxazol-5-yl)-2-methylbenzyl)oxy)-5-chloro-2-((5-cyanopyridin-3-yl)methoxy)benzyl)piperidine-2-carboxylic Acid] yielded an IC50 of 1 to 5 nM.
Compound `Cc1c(COc2cc(OCc3cncc(C#N)c3)c(CN3CCCC[C@H]3C(=O)O)cc2Cl)cccc1-c1ccc2oc(C3CCCN(C)C3)nc2c1` (stereo partly drawn) [Example 1003, (2S)-1-(5-chloro-2-((5-cyanopyridin-3-yl)methoxy)-4-((2-methyl-3-(2-(1-methylpiperidin-3-yl)benzo[d]oxazol-5-yl)benzyl)oxy)benzyl)piperidine-2-carboxylic Acid] has an IC50 of 1 to 5 nM.
`Cc1c(COc2cc(OCc3cncc(C#N)c3)c(CN(C)C(CO)CO)cc2Cl)cccc1-c1ccc2oc(N3CCN(C)CC3)nc2c1` [Example 2014] gave an IC50 of 1 to 5 nM.
Work on `COc1cc(OCc2cccc(-c3ccc4oc(C5CCN(c6ccccc6)CC5)nc4c3)c2C)c(Cl)cc1CN1CCCC[C@H]1C(=O)O` [Example 1023, (S)-1-(5-chloro-2-methoxy-4-((2-methyl-3-(2-(1-phenylpiperidin-4-yl)benzo[d]oxazol-5-yl)benzyl)oxy)benzyl)piperidine-2-carboxylic Acid] yielded an IC50 of 201 to 10000 nM.
`Cc1c(COc2cc(OCc3cncc(C#N)c3)c(CN3CCCC[C@H]3C(=O)O)cc2Cl)cccc1-c1ccc2ncc(C3=CCNCC3)nc2c1` [Example 1030, (S)-1-(5-chloro-2-((5-cyanopyridin-3-yl)methoxy)-4-((2-methyl-3-(3-(1,2,3,6-tetrahydropyridin-4-yl)quinoxalin-6-yl)benzyl)oxy)benzyl)piperidine-2-carboxylic Acid] was tested, and the IC50 was 0.18 to 0.99 nM.
With `Cc1c(COc2cc(OCc3cncc(C#N)c3)c(CN3CCCC[C@H]3C(=O)O)cc2Cl)cccc1-c1cc(C)c2oc(C3CCN(C)CC3)nc2c1` [Example 1009, (S)-1-(5-chloro-2-((5-cyanopyridin-3-yl)methoxy)-4-((2-methyl-3-(7-methyl-2-(1-methylpiperidin-4-yl)benzo[d]oxazol-5-yl)benzyl)oxy)benzyl)piperidine-2-carboxylic Acid] the IC50 was 1 to 5 nM.
For `Cc1c(COc2cc(OCc3cncc(C#N)c3)c(CN3CCCC[C@H]3C(=O)O)cc2Cl)cccc1-c1ccc2oc(C3CCN(CC(=O)O)CC3)nc2c1` [Example 1016, (S)-1-(4-((3-(2-(1-(carboxymethyl)piperidin-4-yl)benzo[d]oxazol-5-yl)-2-methylbenzyl)oxy)-5-chloro-2-((5-cyanopyridin-3-yl)methoxy)benzyl)piperidine-2-carboxylic Acid], the IC50 was 0.18 to 0.99 nM.
`Cc1c(COc2cc(OCc3cncc(C#N)c3)c(CN3CCCC[C@H]3C(=O)O)cc2Cl)cccc1-c1ccc2oc(C3CCN(C)CC3)nc2c1C` [Example 1010, (S)-1-(5-chloro-2-((5-cyanopyridin-3-yl)methoxy)-4-((2-methyl-3-(4-methyl-2-(1-methylpiperidin-4-yl)benzo[d]oxazol-5-yl)benzyl)oxy)benzyl)piperidine-2-carboxylic Acid] gave an IC50 of 1 to 5 nM.
`Cc1c(COc2cc(OCc3cncc(C#N)c3)c(CN[C@](C)(CO)C(=O)O)cc2Cl)cccc1-c1ccc2oc(C3CCN(C)CC3)nc2c1` [Example 1020, (R)-2-((5-chloro-2-((5-cyanopyridin-3-yl)methoxy)-4-((2-methyl-3-(2-(1-methylpiperidin-4-yl)benzo[d]oxazol-5-yl)benzyl)oxy)benzyl)amino)-3-hydroxy-2-methylpropanoic Acid] gave an IC50 of 0.18 to 0.99 nM.

Source: patent publication US10882844B2, “Compounds useful as immunomodulators” (Bristol-Myers Squibb Company, priority 2016, dated 2021)
